Tests used:
[1] = target: T1, GABA-A receptor; alpha-5/beta-3/gamma-2 (Homo sapiens, UniProt P18507+P28472+P31644); assay: Displacement of [3H]Ro 15-1788 from recombinant human GABA-Aalpha5 receptor plus beta-3-gamma-2 expressed in L(tk-) cells; assay type: cell-based
T1 sequence (P18507 whole entry): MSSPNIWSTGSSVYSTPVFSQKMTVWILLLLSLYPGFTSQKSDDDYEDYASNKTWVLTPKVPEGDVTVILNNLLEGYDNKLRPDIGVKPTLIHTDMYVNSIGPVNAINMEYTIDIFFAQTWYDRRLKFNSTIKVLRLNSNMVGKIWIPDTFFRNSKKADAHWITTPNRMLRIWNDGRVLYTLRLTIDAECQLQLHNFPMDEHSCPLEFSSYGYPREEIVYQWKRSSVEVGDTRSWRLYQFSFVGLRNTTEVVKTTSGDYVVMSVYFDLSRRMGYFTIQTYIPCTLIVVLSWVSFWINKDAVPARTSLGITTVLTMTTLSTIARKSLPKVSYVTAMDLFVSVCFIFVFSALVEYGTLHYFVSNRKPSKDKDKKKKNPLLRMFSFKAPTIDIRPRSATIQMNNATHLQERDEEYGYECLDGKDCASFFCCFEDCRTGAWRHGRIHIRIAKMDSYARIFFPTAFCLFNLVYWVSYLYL
T1 sequence (P28472 whole entry): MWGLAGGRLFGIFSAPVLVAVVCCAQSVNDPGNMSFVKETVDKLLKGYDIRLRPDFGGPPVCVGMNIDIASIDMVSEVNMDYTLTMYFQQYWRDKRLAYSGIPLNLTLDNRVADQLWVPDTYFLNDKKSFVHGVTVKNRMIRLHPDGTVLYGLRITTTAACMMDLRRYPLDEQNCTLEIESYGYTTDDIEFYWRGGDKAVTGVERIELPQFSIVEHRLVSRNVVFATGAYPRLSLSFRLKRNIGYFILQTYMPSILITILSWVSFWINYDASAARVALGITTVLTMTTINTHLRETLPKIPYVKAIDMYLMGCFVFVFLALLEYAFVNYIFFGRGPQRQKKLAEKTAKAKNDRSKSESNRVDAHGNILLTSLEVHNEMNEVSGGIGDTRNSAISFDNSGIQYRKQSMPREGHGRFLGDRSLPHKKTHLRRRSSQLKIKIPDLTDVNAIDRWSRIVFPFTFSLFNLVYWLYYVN
T1 sequence (P31644 whole entry): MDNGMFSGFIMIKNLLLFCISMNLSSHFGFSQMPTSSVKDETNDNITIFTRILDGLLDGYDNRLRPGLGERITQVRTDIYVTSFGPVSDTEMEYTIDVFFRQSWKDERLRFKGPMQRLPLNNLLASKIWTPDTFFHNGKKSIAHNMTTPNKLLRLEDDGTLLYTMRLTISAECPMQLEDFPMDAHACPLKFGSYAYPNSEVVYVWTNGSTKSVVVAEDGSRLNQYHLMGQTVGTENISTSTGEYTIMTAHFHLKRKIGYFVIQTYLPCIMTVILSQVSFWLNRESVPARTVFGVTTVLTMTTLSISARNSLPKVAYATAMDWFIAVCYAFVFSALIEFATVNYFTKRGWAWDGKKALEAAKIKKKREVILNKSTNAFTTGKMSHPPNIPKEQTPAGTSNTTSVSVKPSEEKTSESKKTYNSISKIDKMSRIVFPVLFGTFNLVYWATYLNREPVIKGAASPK

[2] = target: T2, GABA-A receptor; alpha-1/beta-3/gamma-2 (Homo sapiens) (UniProt P14867+P18507+P28472); assay: Efficacy against recombinant human GABA-Aalpha1 receptor plus beta-3-gamma-2 expressed in L(tk-) cells by modulation of chloride ion flux relative to chlordiazepoxide; assay type: cell-based
[3] = target: T3, GABA-A receptor; alpha-3/beta-3/gamma-2 (Homo sapiens) (UniProt P18507+P28472+P34903); assay: Efficacy against recombinant human GABA-Aalpha3 receptor plus beta-3-gamma-2 expressed in L(tk-) cells by modulation of chloride ion flux relative to chlordiazepoxide; assay type: functional, cell-based
[4] = target: T4, GABA-A receptor; alpha-1/beta-3/gamma-2 (Homo sapiens, UniProt P14867+P18507+P28472); assay: Displacement of [3H]Ro 15-1788 from recombinant human GABA-Aalpha1 receptor plus beta3gamma2 expressed in mouse L(tk-) cells; assay type: cell-based
T4 sequence (P14867 whole entry): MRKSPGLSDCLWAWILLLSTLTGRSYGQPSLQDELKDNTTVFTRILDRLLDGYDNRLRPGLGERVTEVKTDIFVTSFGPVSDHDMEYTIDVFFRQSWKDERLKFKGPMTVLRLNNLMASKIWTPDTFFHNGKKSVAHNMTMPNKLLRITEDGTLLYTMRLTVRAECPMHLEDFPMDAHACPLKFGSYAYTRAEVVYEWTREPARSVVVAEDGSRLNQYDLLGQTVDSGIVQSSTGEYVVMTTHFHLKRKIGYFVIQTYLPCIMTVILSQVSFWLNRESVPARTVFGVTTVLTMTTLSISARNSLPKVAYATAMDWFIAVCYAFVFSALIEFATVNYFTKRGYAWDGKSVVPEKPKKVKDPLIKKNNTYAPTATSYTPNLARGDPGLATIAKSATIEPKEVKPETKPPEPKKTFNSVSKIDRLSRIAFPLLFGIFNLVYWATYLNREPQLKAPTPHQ
T4 sequence (P18507 whole entry): T1 sequence (P18507 whole entry)
T4 sequence (P28472 whole entry): T1 sequence (P28472 whole entry)

[5] = target: T5, GABA-A receptor; alpha-3/beta-3/gamma-2 (Homo sapiens, UniProt P18507+P28472+P34903); assay: Displacement of [3H]Ro 15-1788 from recombinant human GABA-Aalpha3 receptor plus beta-3-gamma-2 expressed in L(tk-) cells; assay type: cell-based
T5 sequence (P18507 whole entry): T1 sequence (P18507 whole entry)
T5 sequence (P28472 whole entry): T1 sequence (P28472 whole entry)
T5 sequence (P34903 whole entry): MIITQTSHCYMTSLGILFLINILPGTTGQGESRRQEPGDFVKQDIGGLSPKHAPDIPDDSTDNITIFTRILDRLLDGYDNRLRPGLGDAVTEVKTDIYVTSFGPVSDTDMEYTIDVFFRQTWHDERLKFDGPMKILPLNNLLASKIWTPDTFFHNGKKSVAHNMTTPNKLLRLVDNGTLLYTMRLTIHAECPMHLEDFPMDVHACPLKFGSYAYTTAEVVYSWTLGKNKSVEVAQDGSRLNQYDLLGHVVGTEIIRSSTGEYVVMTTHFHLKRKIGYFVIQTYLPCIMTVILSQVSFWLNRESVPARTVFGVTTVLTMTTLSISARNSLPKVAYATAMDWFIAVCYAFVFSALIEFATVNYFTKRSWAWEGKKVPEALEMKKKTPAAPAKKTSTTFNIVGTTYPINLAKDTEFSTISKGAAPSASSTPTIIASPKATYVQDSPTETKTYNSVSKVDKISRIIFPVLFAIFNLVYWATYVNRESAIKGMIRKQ

[6] = target: T6, GABA-A receptor; alpha-2/beta-3/gamma-2 (Homo sapiens, UniProt P18507+P28472+P47869); assay: Displacement of [3H]Ro 15-1788 from recombinant human GABA-Aalpha2 receptor plus beta-3-gamma-2 expressed in mouse L(tk-) cells; assay type: cell-based
T6 sequence (P18507 whole entry): T1 sequence (P18507 whole entry)
T6 sequence (P28472 whole entry): T1 sequence (P28472 whole entry)
T6 sequence (P47869 whole entry): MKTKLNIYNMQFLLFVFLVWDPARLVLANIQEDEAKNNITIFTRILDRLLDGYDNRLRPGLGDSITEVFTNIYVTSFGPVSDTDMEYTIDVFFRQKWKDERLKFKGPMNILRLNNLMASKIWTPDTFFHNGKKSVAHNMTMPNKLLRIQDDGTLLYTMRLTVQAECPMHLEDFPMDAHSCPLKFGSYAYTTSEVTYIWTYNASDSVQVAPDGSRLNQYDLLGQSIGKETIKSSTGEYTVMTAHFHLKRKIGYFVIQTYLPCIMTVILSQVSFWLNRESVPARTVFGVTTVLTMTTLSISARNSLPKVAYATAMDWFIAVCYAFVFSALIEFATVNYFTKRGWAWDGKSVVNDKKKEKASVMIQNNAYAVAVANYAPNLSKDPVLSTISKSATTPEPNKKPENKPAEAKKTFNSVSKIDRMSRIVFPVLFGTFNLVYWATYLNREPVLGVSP

[7] = target: T2, GABA-A receptor; alpha-1/beta-3/gamma-2 (Homo sapiens); assay: Efficacy against recombinant human GABA-Aalpha1 receptor plus beta-3-gamma-2 expressed in L(tk-) cells by whole cell patch clamp method; assay type: functional, cell-based
[8] = target: T3, GABA-A receptor; alpha-3/beta-3/gamma-2 (Homo sapiens); assay: Efficacy against recombinant human GABA-Aalpha3 receptor plus beta-3-gamma-2 expressed in L(tk-) cells by whole cell patch clamp method relative to chlordiazepoxide; assay type: functional, cell-based
[9] = target: GABA-A receptor; alpha-2/beta-3/gamma-2 (Homo sapiens) (UniProt P18507+P28472+P47869); assay: Efficacy against recombinant human GABA-Aalpha2 receptor plus beta-3-gamma-2 expressed in L(tk-) cells by whole cell patch clamp method relative to chlordiazepoxide; assay type: functional, cell-based
[10] = target: GABA-A receptor; alpha-5/beta-3/gamma-2 (Homo sapiens) (UniProt P18507+P28472+P31644); assay: Efficacy against recombinant human GABA-Aalpha5 receptor plus beta3gamma2 expressed in L(tk-) cells by whole cell patch clamp method relative to chlordiazepoxide; assay type: functional, cell-based
[11] = Oral bioavailability in Sprague-Dawley rat at 1 mg/kg, iv or 1 mg/kg, po; assay type: ADME, organism-based; conditions: in vivo
Rattus norvegicus = assay: Plasma clearance in Sprague-Dawley rat at 1 mg/kg, iv or 1 mg/kg, po; assay type: organism-based
[12] = Half life in Sprague-Dawley rat at 1 mg/kg, iv or 1 mg/kg, po; assay type: ADME, organism-based; conditions: in vivo
[13] = Volume of distribution in Sprague-Dawley rat at 1 mg/kg, iv or 1 mg/kg, po; assay type: ADME, organism-based; conditions: in vivo, read-out: Vdss
[14] = Oral bioavailability in Beagle dog at 1 mg/kg, iv or 1 mg/kg, po; assay type: ADME, organism-based, Canis lupus familiaris; conditions: in vivo
[15] = Plasma clearance in Beagle dog at 1 mg/kg, iv or 1 mg/kg, po; assay type: ADME, organism-based, Canis lupus familiaris
[16] = Half life in Beagle dog at 1 mg/kg, iv or 1 mg/kg, po; assay type: ADME, organism-based, Canis lupus familiaris; conditions: in vivo
[17] = Volume of distribution in Beagle dog at 1 mg/kg, iv or 1 mg/kg, po; assay type: ADME, organism-based, Canis lupus familiaris; conditions: in vivo, read-out: Vdss

Structure (SMILES)	Ki [1] [nM]	Efficacy [2]	Efficacy [3]	Ki [4] [nM]	Ki [5] [nM]	Ki [6] [nM]	Efficacy [7]	Efficacy [8]	Efficacy [9]	Efficacy [10]	bioavailability [11] [%]	half-life [12] [min]	Vd [13] [L/kg]	bioavailability [14] [%]	clearance [15] [mL/min/kg]	half-life [16] [min]	Vd [17] [L/kg]	CL (mL.min-1.kg-1) (Rattus norvegicus)
CC(C)(O)c1cnn2c(-c3ccc(F)c(-c4ccncc4C#N)c3)cnc2n1	0.32			0.76	1.06	1.54	0	0.37	0.23	0.41								
CC(C)(O)c1ccn2c(-c3ccc(F)c(-c4ccncc4C#N)c3)cnc2n1	0.14	0.3	0.59	0.6	0.28													
CC(C)(O)c1ccn2c(-c3ccc(F)c(-c4ncc(F)cc4F)c3)cnc2n1	1.13	0.18	0.21	1.79	3.76													
CC(C)(O)c1cnn2c(-c3ccc(F)c(-c4ncncc4C#N)c3)cnc2n1				0.67	3.3		0.01	0.34										
CC(C)(O)c1ccn2c(-c3ccc(F)c(-c4ccc(F)cn4)c3)cnc2n1	0.42	0.38	0.57	1.6	1.94		0.4											
CC(C)(O)c1cnn2c(-c3ccc(F)c(-c4cccnc4)c3)cnc2n1	0.5			0.81	1.63		0	0.24										

Continued, in another order:

Ki [1] [nM]	Efficacy [2]	Efficacy [3]	Ki [4] [nM]	Ki [5] [nM]	Ki [6] [nM]	Efficacy [7]	Efficacy [8]	Efficacy [9]	Efficacy [10]	bioavailability [11] [%]	half-life [12] [min]	Vd [13] [L/kg]	bioavailability [14] [%]	clearance [15] [mL/min/kg]	half-life [16] [min]	Vd [17] [L/kg]	Structure (SMILES)	CL (mL.min-1.kg-1) (Rattus norvegicus)
1.24	0.44	0.68	0.8	0.42													CC(C)(O)c1ccn2c(-c3ccc(F)c(-c4ncccc4F)c3)cnc2n1	
9.34			1.28	9.53	8.43	0.01	0.69	0.37	0.2	102	474	1.7	99	2.2	582	1.5	CC(C)(O)c1cnn2c(-c3ccc(F)c(-c4ncccc4C#N)c3)cnc2n1	2.4
1.57			2.01	3.42		0.24	0.52										CC(C)(O)c1cnn2c(-c3ccc(F)c(-c4ncccc4F)c3)cnc2n1	
	0.06	0.5				0.05	0.53					1	46	8.1	60	0.6	CC(C)(O)c1ccn2c(-c3ccc(F)c(-c4cccnc4)c3)cnc2n1	9.1
0.67	0.26	0.52	1.43	3.64													CC(C)(O)c1ccn2c(-c3ccc(F)c(-c4ncccc4C#N)c3)cnc2n1	
2.71			0.67	4.5	3.44	0	0.5	0.39	0.09	69	1320	2.2	64	0.5		2.3	CC(C)(O)c1cnn2c(-c3ccc(F)c(-c4ncc(F)cc4F)c3)cnc2n1	1.2
0.31	0.18	0.47	0.68	2.25		0.42											CC(C)(O)c1ccn2c(-c3ccc(F)c(-c4ccncc4)c3)cnc2n1	
1.24			1.45	2.77	2.3	0.15	0.5										CC(C)(O)c1cnn2c(-c3ccc(F)c(-c4ccc(F)cn4)c3)cnc2n1	
0.5			0.55	0.52	0.92	0.06											CC(C)(O)c1cnn2c(-c3ccc(F)c(-c4ccncc4)c3)cnc2n1	

— ChEMBL document CHEMBL1139660, “Imidazo[1,2-b][1,2,4]triazines as alpha2/alpha3 subtype selective GABA A agonists for the treatment of anxiety” (Bioorg Med Chem Lett, 2006)
